Where two headings read alike, the source gives them in different places.
Legend:
[1] = system: neuraminidase of B/New Jersey/02/2009; format: biochemical, influenza B virus
[2] = target: neuraminidase of Pandemic H1N1 virus isolates (Influenza A virus, UniProt C7FH46); format: biochemical, 2009 pandemic H1N1 influenza virus
[3] = target: neuraminidase of A/California/07/2009, H1N1 Pandemic, WT (Influenza A virus (A/California/07/2009(H1N1)), UniProt C7FH46); format: biochemical, 2009 pandemic H1N1 influenza virus; conditions: read-out: Mean IC50 ± SD
[4] = system: neuraminidase of B/Okinawa/10/2009; format: biochemical, influenza B virus
[5] = system: neuraminidase of seasonal influenza A(H1N1) viruses; format: biochemical, influenza A(H1N1) virus
[6] = target: neuraminidase of seasonal influenza A(H3N2) virus isolates (Influenza A virus, UniProt X2GK54); format: biochemical
[7] = target: neuraminidase of A/Washington/01/2007, A (H3N2) Seasonal, WT (Influenza A virus, UniProt A7UPN3); experiment: biochemical
[8] = target: neuraminidase of A/Washington/10/2008, A (H1N1) Seasonal, WT (Influenza A virus, UniProt G3LYQ1); format: biochemical; conditions: read-out: Mean IC50 ± SD
[9] = target: neuraminidase of seasonal influenza B virus isolates (Influenza B virus, UniProt U5XBU0); format: biochemical
[10] = target: neuraminidase of A/England/412/2008 (H1N1), H275H/Y mix; format: biochemical, influenza A(H1N1) virus
[11] = target: neuraminidase of 2009 pandemic H1N1 H275 wildtype virus isolates (Influenza A virus, UniProt C3W5S3); format: biochemical, 2009 pandemic H1N1 influenza virus
[12] = target: neuraminidase of B/Memphis/20/1996, B Seasonal, WT (Influenza B virus, UniProt C7FPS7); format: biochemical; conditions: read-out: Mean IC50 ± SD
[13] = target: neuraminidase of seasonal influenza A(H1N1) H275 wildtype virus isolates (Influenza A virus, UniProt A8C8J7); format: biochemical
[14] = read-out: IC50 Statistical Cutoff (X0.75 + 3IQR)
[15] = read-out: IC50 X0.75 (75th Percentile)

CC(=O)N[C@H]1[C@H]([C@H](O)[C@H](O)CO)OC(C(=O)O)=C[C@@H]1N=C(N)N [Zanamivir, zanamivir]
susceptibility in NI assay [1]: reduced susceptibility | susceptibility in NI assay [2]: sensitive | IC50 [3]: 0.26 nM | susceptibility in NI assay [4]: reduced susceptibility | susceptibility in NI assay [5]: sensitive | susceptibility in NI assay [6]: sensitive | IC50 [7]: 0.47 nM

CCC(CC)[C@H](NC(C)=O)[C@@H]1[C@H](O)[C@@H](C(=O)O)C[C@H]1N=C(N)N [Peramivir, peramivir]
IC50 [8]: 0.09 nM | susceptibility in NI assay [2]: sensitive | susceptibility in NI assay [9]: sensitive | IC50 ([9]; read-out: IC50 Mean (±SD)): 0.56 nM | IC50 ([9]; read-out: IC50 Median): 0.56 nM | IC50 ([9]; read-out: IC50 Range): 0.24 to 1.1 nM | IC50 [9, 14]: 1.37 nM | IC50 [9, 15]: 0.68 nM | IC50 [10]: 0.51 nM | IC50 [3]: 0.06 nM | IC50 ([11]; read-out: IC50 Mean (±SD)): 0.08 ± 0.04 nM | IC50 ([11]; read-out: IC50 Median): 0.07 nM | IC50 ([11]; read-out: IC50 Range): 0.03 to 0.35 nM | IC50 [11, 14]: 0.22 nM | IC50 [11, 15]: 0.1 nM | IC50 [12]: 0.31 nM | IC50 ([13]; read-out: IC50 Mean (±SD)): 0.1 nM | IC50 ([13]; read-out: IC50 Median): 0.1 nM | IC50 ([13]; read-out: IC50 Range): 0.05 to 0.17 nM | IC50 [13, 14]: 0.28 nM | IC50 [13, 15]: 0.13 nM | IC50 ([6]; read-out: IC50 Mean (±SD)): 0.17 ± 0.1 nM | IC50 ([6]; read-out: IC50 Median): 0.14 nM | IC50 ([6]; read-out: IC50 Range): 0.05 to 0.94 nM | IC50 [6, 14]: 0.4 nM | IC50 [6, 15]: 0.19 nM | IC50 ([7]; read-out: Mean IC50 ± SD): 0.12 nM
